In publication PMC12274739, “Differential substrate degradation by super-degron: EGFP in wild-type mouse cells, PD-1 requires CRBN humanization” (iScience, 2025):
Like-named read-outs stand apart in the source and are kept apart here.

How the values were obtained:
[1] = molecular target: EGFP-ZFP91 (UniProt P42212+Q8C7D2, F64L/H231L/INS1V/S65T); assay type: cell-based, mouse; settings: read-out: DC50, EGFP-ZFP91, stable
[2] = test system: GL-261; test: GL-261 orthotopic model, growth in brain by MRI; assay type: in vivo, mouse; settings: Pdcd1SD/SD/CrbnI391V/I391V mice, IBR oral administration
Source text: In vivo proliferation of another tumor cell line, GL-261 […], was also examined to confirm the effect of PD-1 reduction other than the MC-38 adenocarcinoma cell line.[34]
GL-261 cells were passaged one day before inoculation and resuspended in HBSS at a concentration of 1 × 10^7 cells/mL. The mice were anesthetized by intraperitoneal injection of a combination of the three drugs described in the previous section and immobilized in a stereotactic frame (RWD Life Science, US). After a midline scalp incision, a small burr hole located 2 mm to the right and 1 mm anterior to the bregma was drilled into the skull (AP:1.0 mm, ML:-2.0 mm). The syringe needle was inserted at a depth of 3.0 mm and then raised 0.4 mm to get to a depth of 2.6 mm. 2 μL of cell (2 x10^4 cells) was injected using a 10 μL syringe (Hamilton, USA) connected to a syringe pump (KD Scientific, US; injection rate: 0.5 μL/min). After injection, the needle was left in place for an additional 5 min to avoid backflow. […]
All the MR experiments were performed at the Medical Research Support Center, Graduate School of Medicine, Kyoto University, Japan. […] The respiratory rate and rectal temperature of the animals were continuously monitored using a dedicated system (Model 1025, MR-compartible Small Animal Monitoring & Gating System; SA Instruments, Inc., NY, USA) and software (PC-SAM V8.04; SA Instruments). […]

[3] = molecular target: SD-EGFP (Aequorea victoria, UniProt P42212, F64L/H231L/S65T); settings: rat ESCs, stable
[4] = test system: mouse PD-1-SD; test: Linker evaluation of mouse PD-1-SD in Jurkat cells; assay type: cell-based, human; settings: PD-1-SD with a linker, 1 µM iberdomide for 1 day
Source text: We used human Jurkat cells as it was difficult to accurately assess exogenous PD-1 expression, as EL4 cells originally expressed mouse PD-1. […] Therefore, the simplest “no linker” construct was adopted for in vivo protein knockdown in mice. Considering that fluorescent proteins affect the degradation efficiency of PD-1,[31] we decided to knock in without a fluorescent protein as a marker. SD was inserted downstream of the endogenous Pdcd1 gene (the gene encoding PD-1) in Crbn^I391V/I391V mice using genome editing (Figures 6A and S5), and double homozygous (Pdcd1^SD/SD/Crbn^I391V/I391V) mice were produced by intercrossing.
Figure S4 Evaluation of linker sequences between PD-1 and super degron tag A Amino acid sequences of various linkers between PD-1 and super degron (SD) tag. Sequences […]
were measured by flow cytometry, and the geometric means of fluorescence intensities (MFI) were calculated. The dots indicate the results of the experiment for each of the three samples.
(§1) (1 picture or pasted object on this page, not shown here)

[5] = Histopathological examination of organs; assay type: in vivo, mouse; settings: Pdcd1SD/SD/CrbnI391V/I391V mice with MC-38 inoculation and IBR treatment
Description: The important functions of PD-1 are to suppress autoimmunity, and depletion or suppression of PD-1 leads to autoimmune diseases.[37]
Mice were sacrificed under deep anesthesia then all organs were isolated and immediately immersed in 10% buffered neutral formalin. After fixation for 48 h, tissues were processed as formalin-fixed paraffin-embedded blocks and sliced into 3 μmμ sections, followed by hematoxylin and eosin (HE) staining, periodic acid Schiff (PAS) staining, and Elastica-Masson Goldner staining. All slides were analyzed by a skilled pathologist (T.M.). Glomerular lesions were evaluated using the histological glomerular index, and other organs were scored from 0 (normal) to 3 (necrotic, severe organ injury).
Figure S11 Histological analysis of super degron tag-knockin mice for autoimmune […]
Representative histological manifestations of kidney (A-C), liver (D-F) and large intestine (G-I) of Pdcd1SD/SD/CrbnI391V/I391V mice (A, D and G), Pdcd1+/+/CrbnI391V/I391V mice (B, E and H) and […]
Liver and large intestine manifested normal histological findings in each group (A-C: PAS stain, d-i: HE stain, Bar = 25 µm in A-C, 100 µm in D-I).
as §1
Figure S12 Glomerular index of super degron tag-knockin mice
Glomerular index of each group of mice. […]
higher index nevertheless there were no statistically significant differences among

Chain of EGFP-ZFP91 (Q8C7D2 whole entry, looked up, stated change not applied, other chains not shown): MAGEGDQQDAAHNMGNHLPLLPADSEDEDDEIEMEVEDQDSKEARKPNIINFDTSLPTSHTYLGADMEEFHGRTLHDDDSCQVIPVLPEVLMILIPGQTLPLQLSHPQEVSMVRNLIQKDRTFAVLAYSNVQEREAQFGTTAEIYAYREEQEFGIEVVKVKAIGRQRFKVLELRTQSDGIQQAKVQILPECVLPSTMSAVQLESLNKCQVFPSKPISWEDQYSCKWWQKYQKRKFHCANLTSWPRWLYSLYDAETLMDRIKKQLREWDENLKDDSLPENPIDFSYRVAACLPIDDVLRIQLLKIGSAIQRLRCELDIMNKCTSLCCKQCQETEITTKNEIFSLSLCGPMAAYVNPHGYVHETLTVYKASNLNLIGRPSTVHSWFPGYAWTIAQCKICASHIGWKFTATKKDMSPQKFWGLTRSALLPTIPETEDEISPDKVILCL

O=C1CC[C@H](N2Cc3c(OCc4ccc(CN5CCOCC5)cc4)cccc3C2=O)C(=O)N1 [IBR, iberdomide]
DC50 ([1]; B6J-S1 mESCs, Figure 5B): 21000 pM
DC50 ([1]; CrbnI391V/I391V mESCs, Figure 5E): 834 pM
proliferation of GL-261 [2]: suppressed
Bottom, SD-EGFP [3]: 0.01454
bottom vs top, SD-EGFP ([3]; IBR up to 1 μM): 0.057
DC50 ([3]; read-out: DC50, SD-EGFP): 271 pM
PD-1 expression [4]: significantly reduced
histopathological organ injury [5]: no significant organ injury
